According to article PMC12035797, “Peptidomimetics Activating the Proteasome: A New Perspective for Parkinson’s Treatment” (Journal of Medicinal Chemistry, 2025):
*1 amine or outer side, *2 acyl side, *3 side chain or, on linkers, in order; H or OH if unused. Where a SMILES comes first, the peptide text is derived from it. [ ]: non-standard residue; d: D form. X2 = N=C(N)NCCC[C@@H](C(=O)[*:2])N(c1ccc([N+](=O)[O-])c2nonc12)[*:1]; Nlys = NCCCCNCC(=O)O

Test system: HEK293T cells
Assay: Fluorescence microscopy of cell penetration of NBD-labeled activators
Format: cell-based, human
Details: 10 μM, 3 h
Procedure: In order to verify the permeability of the constructs across cell membranes, we synthesized their analogues with an NBD fluorophore attached at the N-terminus. The excitation wavelength for this fluorophore is 467 nm, and the emission wavelength is 539 nm.
HEK293T cells were incubated in DMEM supplemented with 10% FBS and penicillin/streptomycin (100 units/mL/100 μg/mL), at 37 °C with 5% CO2. Cells were seeded on 24-well plates at a density of 3 × 10^4 cells per well and incubated in 0.5 mL of the complete medium for 48 h. Then, the fresh medium containing the modulators labeled with NBD fluorophore was added to each well at a concentration of 10 μM. Half an hour before the end of the incubation, 20 μL of Hoechst 33342 dye was added to each well, and then the plate was placed back in the incubator. After the 3 h incubation, cells were washed thoroughly with PBS, and a phenol red-free culture medium (FluoroBriteTM DMEM, Gibco/Thermo Fisher Scientific, Waltham, MA, USA) was added. Subsequently, the cells were examined using a Zeiss AXIO Observer D1 microscope (Carl Zeiss AG, Oberkochen, Germany) using an Alexa Fluor 488 filter.

Row | Compound | penetration into cells, NBD fluorescence
1 | C[C@@H](O)[C@H](NC(=O)[C@H](Cc1ccccc1)NC(=O)[C@H](Cc1ccc(O)cc1)NC(=O)CN(CCCCN)C(=O)[C@H](CCCNC(=N)N)NC(=O)[C@H](CCCNC(=N)N)NC(=O)[C@H](CCCNC(=N)N)NC(=O)[C@H](CCC(N)=O)NC(=O)[C@H](CCCNC(=N)N)NC(=O)[C@H](CCCNC(=N)N)NC(=O)[C@H](CCCCN)NC(=O)[C@H](CCCCN)NC(=O)[C@H](CCCNC(=N)N)Nc1ccc([N+](=O)[O-])c2nonc12)C(=O)NCC(=O)N[C@@H](CO)C(=O)N[C@@H](CCCCN)C(=O)N[C@@H](CC(=O)O)C(=O)N[C@@H](Cc1c[nH]c2ccccc12)C(=O)N[C@@H](CCCNC(=N)N)C(=O)N[C@@H](CO)C(=O)N[C@@H](Cc1ccc(O)cc1)C(=O)N[C@@H](Cc1ccc(O)cc1)C(=O)N[C@@H](CO)C(=O)O [1f_NBD] (H-[X2]KKRRQRRR[Nlys]YFTGSKDWRSYYS-OH; C-terminus assumed) | fluorescence from the attached NBD tag is visible inside HEK293T cells
2 | C[C@@H](O)[C@H](NC(=O)[C@H](Cc1ccccc1)NC(=O)[C@H](Cc1ccc(O)cc1)NC(=O)CN(CCCCN)C(=O)[C@H](CCCNC(=N)N)NC(=O)[C@H](CCCNC(=N)N)NC(=O)[C@H](CCCNC(=N)N)NC(=O)[C@H](CCCNC(=N)N)NC(=O)[C@H](CCCNC(=N)N)NC(=O)[C@H](CCCNC(=N)N)Nc1ccc([N+](=O)[O-])c2nonc12)C(=O)NCC(=O)N[C@@H](CO)C(=O)N[C@@H](CCCCN)C(=O)N[C@@H](CC(=O)O)C(=O)N[C@@H](Cc1c[nH]c2ccccc12)C(=O)N[C@@H](CCCNC(=N)N)C(=O)N[C@@H](CO)C(=O)N[C@@H](Cc1ccc(O)cc1)C(=O)N[C@@H](Cc1ccc(O)cc1)C(=O)N[C@@H](CO)C(=O)O [1g_NBD] (H-[X2]RRRRR[Nlys]YFTGSKDWRSYYS-OH; C-terminus assumed) | fluorescence from the attached NBD tag is visible inside HEK293T cells
